Reference: ChEMBL document CHEMBL3593230, “Randainins A-D, Based on Unique Diterpenoid Architectures, from Callicarpa randaiensis” (J Nat Prod, 2015)
Active and inactive are the calls of the source. The rule behind the calls is not given here.

What was measured:
[1] = system: A549; assay: Cytotoxicity against human A549 cells incubated for 3 days by MTT assay; type: functional, cell-based; conditions: A549, 72 h
[2] = system: MCF7; assay: Cytotoxicity against human MCF7 incubated for 3 days by MTT assay; type: functional, cell-based; conditions: MCF7, 72 h
[3] = Anti-inflammatory activity in human neutrophils assessed as inhibition of fMLP/CB-induced superoxide anion generation incubated for 5 mins followed by fMLP/CB stimulation for 10 mins by spectrophotometry; type: functional, cell-based, Neutrophil
[4] = system: Neutrophil; assay: Anti-inflammatory activity in human neutrophils assessed as inhibition of fMLP/CB-induced elastase release incubated for 5 mins followed by fMLP/CB stimulation using MeO-Suc-Ala-Ala-Pro-Val-p-nitroanilide substrate; type: functional, cell-based
[5] = system: HepG2; assay: Cytotoxicity against human HepG2 cells incubated for 3 days by MTT assay; type: functional, cell-based; conditions: HepG2, 72 h
[6] = Cytotoxicity against human Hep2 cells incubated for 3 days by MTT assay; type: functional, cell-based; conditions: HEp-2, 72 h
[7] = Anti-inflammatory activity in human neutrophils assessed as inhibition of fMLP/CB-induced elastase release at 28.6 uM incubated for 5 mins followed by fMLP/CB stimulation using MeO-Suc-Ala-Ala-Pro-Val-p-nitroanilide substrate; type: functional; conditions: Neutrophil

IC50 ([3]; neutrophil)	IC50 ([3]; Homo sapiens, Neutrophil, read-out: IC50)	SMILES	IC50 [1]	IC50 [2]	inhibition [4]	IC50 [5]	IC50 [6]	inhibition at 28.6 µM [7]
Not Active		C[C@@H]1C[C@H]2C(=O)C(C)(C)[C@H](OC=O)CC[C@]2(O)[C@@]1(C)CCC1=CC(=O)OC1	> 10 µM	> 10 µM	inactive	> 10 µM	> 10 µM	
Not Active		C[C@@H]1C[C@H]2C(=O)C(C)(C)[C@H](O)CC[C@]2(O)[C@@]1(C)CCC1=CC(=O)OC1	> 10 µM	> 10 µM	inactive	> 10 µM	> 10 µM	
	21.5 µM	C[C@@H]1CC[C@]2(O)[C@H](C[C@@H](O)C2(C)C)C(=O)[C@@]1(C)CCC1=CC(=O)OC1	> 10 µM	> 10 µM		> 10 µM	> 10 µM	35.9%
Not Active		C[C@@H]1CC[C@@]2(O)[C@@H](C[C@@H](O)C2(C)C)C(=O)[C@@]1(C)CCC1=CC(=O)OC1	> 10 µM	> 10 µM	inactive	> 10 µM	> 10 µM	
